Molecular target: T1, MASTL (Homo sapiens, UniProt Q96GX5)
T1 construct: recombinant GST-tagged-MASTL
T1 sequence (Q96GX5 1-879): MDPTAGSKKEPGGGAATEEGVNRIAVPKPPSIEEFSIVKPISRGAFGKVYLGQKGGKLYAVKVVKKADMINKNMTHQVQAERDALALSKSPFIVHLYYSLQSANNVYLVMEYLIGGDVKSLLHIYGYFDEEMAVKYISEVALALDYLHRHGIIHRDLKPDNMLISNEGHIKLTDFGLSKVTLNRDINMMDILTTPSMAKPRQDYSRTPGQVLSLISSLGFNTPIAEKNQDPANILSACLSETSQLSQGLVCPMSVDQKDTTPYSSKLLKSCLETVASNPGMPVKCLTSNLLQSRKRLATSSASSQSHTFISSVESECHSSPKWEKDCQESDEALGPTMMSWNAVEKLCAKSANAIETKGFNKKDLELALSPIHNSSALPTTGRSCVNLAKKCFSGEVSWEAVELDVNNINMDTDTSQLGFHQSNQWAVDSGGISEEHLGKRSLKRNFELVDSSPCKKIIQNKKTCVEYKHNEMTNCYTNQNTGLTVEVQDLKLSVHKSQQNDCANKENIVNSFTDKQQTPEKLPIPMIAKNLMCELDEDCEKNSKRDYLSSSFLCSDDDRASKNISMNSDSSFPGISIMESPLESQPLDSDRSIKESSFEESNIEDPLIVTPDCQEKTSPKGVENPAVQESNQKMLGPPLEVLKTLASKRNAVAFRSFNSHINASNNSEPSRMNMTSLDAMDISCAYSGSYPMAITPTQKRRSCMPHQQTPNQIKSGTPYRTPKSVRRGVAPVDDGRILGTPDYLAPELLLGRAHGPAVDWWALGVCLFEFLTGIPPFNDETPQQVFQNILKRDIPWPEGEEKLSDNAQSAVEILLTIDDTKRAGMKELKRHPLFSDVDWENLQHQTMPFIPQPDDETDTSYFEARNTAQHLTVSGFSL
Assay: in vitro kinase assay with recombinant GST-MASTL and His-ENSA substrate; also HTRF KinEASE and ADP-Glo
Type: biochemical

## N#CCc1ccc(Nc2nc(Nc3cc(C4CC4)[nH]n3)c3ccccc3n2)cc1 [#248, 2-(4-((4-((5-cyclopropyl-1H-pyrazol-3-yl)amino)quinazolin-2-yl)amino)phenyl)acetonitrile]
  IC50: 37.4 nM

Source: PMC8308786, “Discovery and Characterization of a Novel MASTL Inhibitor MKI-2 Targeting MASTL-PP2A in Breast Cancer Cells and Oocytes” (Pharmaceuticals, 2021)
